Data as given in PMC8868332, “Creating Robust Antimicrobial Materials with Sticky Tyrocidines” (Antibiotics, 2022).
Where no end group is shown, it is not given here.

Columns and labels:
[1] = test system: L. monocytogenes; conditions: cited from earlier work
Text: Table 2 Summary of the compounds used to compare with the Trc in creating robust non-covalent antimicrobial materials. | column: Minimum Inhibitory Concentration (μg/mL) / L. monocytogenes

[2] = test system: Escherichia coli K12; assay: Resazurin assay of surface activity of peptide-treated cellulose; assay type: cell-based; conditions: cellulose filters, 5.0 µg compound offered per 0.28 cm^2; normalised to untreated cellulose; Figure 6B, three biological and four technical repeats
Description: (§1) An aqueous solution of antimicrobial compound (100 µL of 50.0 µg/mL; 5% v/v acetonitrile) was incubated for two hours with the base material punch (0.28 cm^2), ensuring that 5.0 µg of compound was available for binding. Following the incubation, the antimicrobial compound solution was removed, and the samples washed twice with 100 µL sterile analytical quality water and dried in a 40 °C oven for 2 h. Treatment conditions were chosen to imitate large scale treatment/creation of packaging materials, such as aqueous solutions, followed by a drying step.
The antimicrobial activity of the Trc-containing materials and films were determined by a developed resazurin assay. Listeria monocytogenes B73 was streaked out from freezer stocks onto BHI agar plates (Brain Heart Infusion; 1.5% m/v agar) and incubated for 48 h at 37 °C until colonies were viable. Escherichia coli K12 was streaked out from freezer stocks onto LB plates (1% m/v NaCl, 1% m/v tryptone, 0.5% m/v yeast extract, 1.5% m/v agar in water) and incubated at 37 °C for 24 h. Starter cultures were prepared, by inoculating 1 mL medium with 3–5 colonies and growing the cells overnight at 37 °C at an angle, shaking at 150 RPM. […] This culture was then pipetted (10 µL) onto the treated and untreated materials in a 96-well assay plate and incubated for one hour at 37 °C. Following the incubation, 90 µL PBS (phosphate buffered saline; 0.8% m/v NaCl, 0.04% m/v KCl, 0.144% m/v Na2HPO4, 0.02% m/v KH2PO4; pH 7.4), and 10 µL resazurin dye (0.3 mg/mL in PBS) was added, followed by a further incubation at 37 °C. The conversion of the resazurin was measured at Ex530 and Em590 after 30 min for L. monocytogenes and 90 min for E. coli using the Tecan Spark 10 M Multimode Microplate Reader and controlled by the Spark Control^TM software, both provided by Tecan Group Ltd. (Mennedorf, Switzerland). […] The activity of the material was determined in terms of percentage inhibition by using the acquired fluorescence readings (F), with the following Equation: (1) %Inhibition of Target organism=100−(F of well−F of average blank)×100/(F of growth control−F of average blank).

[3] = general character summarised in Table 2; no reference given; cited from earlier work
Text: Table 2 Summary of the compounds used to compare with the Trc in creating robust non-covalent antimicrobial materials. | column: Character

[4] = test system: E. coli; conditions: cited from earlier work
Text: Table 2 Summary of the compounds used to compare with the Trc in creating robust non-covalent antimicrobial materials. | column: Minimum Inhibitory Concentration (μg/mL) / E. coli

[5] = test system: Listeria monocytogenes B73; assay: Resazurin assay of surface activity of peptide-treated materials; assay type: cell-based; conditions: cellulose filters, 5.0 µg compound offered per 0.28 cm^2; normalised to untreated cellulose; Figure 6A, three biological and four technical repeats
Description: as §1
The antimicrobial activity of the Trc-containing materials and films were determined by a developed resazurin assay. […] The conversion of the resazurin was measured at Ex530 and Em590 after 30 min for L. monocytogenes and 90 min for E. coli using the Tecan Spark 10 M Multimode Microplate Reader and controlled by the Spark Control^TM software, both provided by Tecan Group Ltd. (Mennedorf, Switzerland). […] The activity of the material was determined in terms of percentage inhibition by using the acquired fluorescence readings (F), with the following Equation: (1) %Inhibition of Target organism=100−(F of well−F of average blank)×100/(F of growth control−F of average blank).

Compound	Minimum Inhibitory Concentration L. monocytogenes [1]	% Inhibition of E. coli by peptide-treated cellulose [2]	Haemolytic character (Character) [3]	Solubility (Character) [3]	Minimum Inhibitory Concentration E. coli [4]	% Inhibition of L. monocytogenes by peptide-treated cellulose [5] [%]
CNC(C)C1CCC(N)C(OC2C(N)CC(N)C(OC3OCC(C)(O)C(NC)C3O)C2O)O1 (stereo not drawn) [Gentamicin]	0.5–4.0 [91, 92] μg/mL	–	–	–	–	–
Leucocin A (KYYGNGVHCTKSGCSVNWGEAFSAGVHRLANGGNGFW; ends and bridges not checked; cysteine pairing not given here; UniProt P34034 25-61, looked up) [37-mer cationic, amphipathic disulphide-bonded bacteriocin from Leuconostoc gelidum UAL187]	0.98–1.98 [87] μg/mL	low levels of inhibition	non-haemolytic	water-soluble	–	–
Magainin 2	–	“negative” inhibition	–	–	10–50 [85] μg/mL	–
Melittin	0.315 ± 0.008 [88] μg/mL	low levels of inhibition	haemolytic	water-soluble	15–42.5 [89, 90] μg/mL	–
PGLa	–	“negative” inhibition	–	–	10–50 [86] μg/mL	–
gramicidin S [GS]	11 ± 0.20 [34] μg/mL	full inhibition	–	–	3–12.5 [84] μg/mL	100
